Source: patent EP2036888A1, “Naphthyl-substituted sulfonamides” (Laboratorios del Dr. Esteve S.A., priority 2007, dated 2009)

Biological target: 5HT6 human recombinant receptor (Homo sapiens, UniProt P50406)
Assay: Binding with serotonin receptor 5HT6 ([3H]-LSD radioligand displacement, HEK-293 cell membranes)
Details: for inhibition at 0.01 µM: read-out: Binding % Inhibition 10 nM; for inhibition at 0.1 µM: read-out: Binding % Inhibition 100 nM

Chain of 5HT6 human recombinant receptor (P50406 whole entry): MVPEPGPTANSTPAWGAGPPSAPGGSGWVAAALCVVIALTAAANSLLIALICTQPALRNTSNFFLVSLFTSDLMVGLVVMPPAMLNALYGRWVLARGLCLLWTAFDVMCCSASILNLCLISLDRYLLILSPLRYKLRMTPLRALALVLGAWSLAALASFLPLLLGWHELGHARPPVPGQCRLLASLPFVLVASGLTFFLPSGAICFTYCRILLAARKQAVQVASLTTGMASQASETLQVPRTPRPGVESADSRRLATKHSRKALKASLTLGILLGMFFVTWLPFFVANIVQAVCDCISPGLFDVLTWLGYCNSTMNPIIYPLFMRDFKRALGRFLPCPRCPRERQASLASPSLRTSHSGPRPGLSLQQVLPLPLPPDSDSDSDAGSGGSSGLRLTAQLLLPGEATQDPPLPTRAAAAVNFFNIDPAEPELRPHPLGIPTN

| Compound | inhibition at 0.01 µM [%] | inhibition at 0.1 µM [%] | Ki [nM] |
| --- | --- | --- | --- |
| CN(C)CCc1c[nH]c2ccc(NS(=O)(=O)c3ccc4cc(Cl)ccc4c3)cc12 [Example 1, 6-chloro-N-(3-(2-(dimethylamino)ethyl)-1H-indol-5-yl)naphthalene-2-sulfonamide] | 73.9 | 84.4 |  |
| CN(C)CCc1c[nH]c2ccc(NS(=O)(=O)c3cccc4c(N(C)C)cccc34)cc12 [Example 2] | 75.1 | 86.3 | 5.3 |
| Cc1ccc(S(=O)(=O)Nc2ccc3[nH]cc(CCN(C)C)c3c2)c2ccccc12 [Example 3, N-(3-(2-(dimethylamino)ethyl)-1H-indol-5-yl)-4-methylnanhthalene-1-sulfonamide] | 80.3 | 88.5 | 9.8 |
| CN(C)CCc1c[nH]c2ccc(NS(=O)(=O)c3ccc4ccc(Cl)cc4c3)cc12 [Example 4, 7-chloro-N-(3-(2-(dimethylamino)ethyl)-1H-indol-5-yl)naphthalene-2-sulfonamide] | 81.2 | 89.3 | 3.9 ± 0.4 |
| CN(C)CCc1c[nH]c2ccc(NS(=O)(=O)c3ccc4cc(N(C)C)ccc4c3)cc12 [Example 5, 6-(dimethylamino)-N-(3-(2-(dimethylamino)ethyl)-1H-indol-5-yl)naphthalene-2-sulfonamide] | 69.8 | 88.5 | 11.9 ± 3.3 |
| CN(C)CCc1c[nH]c2ccc(NS(=O)(=O)c3cccc4cccc(Cl)c34)cc12 [Example 6, 8-chloro-N-(3-(2-(dimethylamino)ethyl)-1H-indol-5-yl)naphthalene-1-sulfonamide] | 68.4 | 88.4 | 2.1 |
| CN(C)CCc1c[nH]c2ccc(NS(=O)(=O)c3ccc(F)c4ccccc34)cc12 [Example 7, N-(3-(2-(dimethylamino)ethyl)-1H-indol-5-yl)-4-fluoronaphthalene-1-sulfonamide] | 81.5 | 95.4 | 5.2 |
| CN(C)CCc1cn(C)c2ccc(NS(=O)(=O)c3ccc4c(Cl)cccc4c3)cc12 [Example 8, 5-chloro-N-(3-(2-(dimethylamino)ethyl)-1-methyl-1H-indol-5-yl)naphthalene-2-sulfonamide] | 64.5 | 93.4 | 13.4 ± 0.9 |
| Cn1cc(CCN2CCCC2)c2cc(NS(=O)(=O)c3cccc4ccccc34)ccc21 [Example 9, N-(1-methyl-3-(2-(pyrrolidin-1-yl)ethyl)-1H-indol-5-yl)naphthalene-1-sulfonamide] | 58.1 | 86.8 | 42.5 ± 13.9 |
| CN(C)CCc1c[nH]c2ccc(N(C)S(=O)(=O)c3cccc4ccccc34)cc12 [Example 10, N-(3-(2-(dimethylamino)ethyl)-1H-indol-5-yl)-N-methylnaphthalene-1-sulfonamide] | 79.2 | 92.7 | 9.7 ± 4.5 |
| CN(C)CCc1c[nH]c2ccc(N(C)S(=O)(=O)c3ccc4ccccc4c3)cc12 [Example 11, N-(3-(2-(dimethylamino)ethyl)-1H-indol-5-yl)-N-methylnaphthalene-2-sulfonamide] | 73.1 | 93.1 | 12.3 ± 3.7 |
| CN(C)CCc1c[nH]c2ccc(N(C)S(=O)(=O)c3cccc4c(Cl)cccc34)cc12 [Example 12, 5-chloro-N-(3-(2-(dimethylamino)ethyl)-1H-indol-5-yl)-N-methylnaphthalene-1-sulfonamide] | 51.6 | 85.4 | 48.7 ± 6.9 |
| CN(C)CCc1c[nH]c2ccc(N(C)S(=O)(=O)c3ccc4c(Cl)cccc4c3)cc12 [Example 13, 5-chloro-N-(3-(2-(dimethylamino)ethyl)-1H-indol-5-yl)-N-methylnaphthalene-2-sulfonamide] | 55.5 | 87.6 | 18.1 ± 2.6 |
| COc1cccc2c(S(=O)(=O)Nc3ccc4[nH]cc(CCN(C)C)c4c3)cccc12 [Example 14, N-(3-(2-(dimethylamino)ethyl)-1H-indol-5-yl)-5-methoxynanhthalene-1-sulfonamide] | 59.6 | 88.1 | 18.6 |
| CN(C)CCc1c[nH]c2ccc(NS(=O)(=O)c3cccc4c(O)cccc34)cc12 [Example 15, N-(3-(2-(dimethylamino)ethyl)-1H-indol-5-yl)-5-hydroxynaphthalene-1-sulfonamide] | 91.9 | 94.6 | 0.5 |
| COc1ccc2ccc(S(=O)(=O)Nc3ccc4[nH]cc(CCN(C)C)c4c3)cc2c1 [Example 16, N-(3-(2-(dimethylamino)ethyl)-1H-indol-5-yl)-7-methoxynaphthalene-2-sulfonamide] | 70 | 89.3 | 5 ± 1.3 |
| CN(C)CCc1c[nH]c2ccc(NS(=O)(=O)c3ccc4ccc(O)cc4c3)cc12 [Example 17, N-(3-(2-(dimethylamino)ethyl)-1 H-indol-5-yl)-7-hydroxynaphthalene-2-sulfonamide] | 69.9 | 91.5 | 6.9 ± 0.2 |
| COc1cccc2cccc(S(=O)(=O)Nc3ccc4[nH]cc(CCN(C)C)c4c3)c12 [Example 18, N-(3-(2-(dimethylamino)ethyl)-1H-indol-5-yl)-8-methoxynaphthalene-1-sulfonamide] | 69.2 | 88.4 | 8.3 |
| CN(C)CCc1c[nH]c2ccc(NS(=O)(=O)c3cccc4cccc(O)c34)cc12 [Example 19, N-(3-(2-(dimethylamino)ethyl)-1H-indol-5-yl)-8-hydroxynaphthalene-1-sulfonamide] | 53.8 | 85.9 | 24.6 ± 2.1 |
| COc1ccc(S(=O)(=O)Nc2ccc3[nH]cc(CCN(C)C)c3c2)c2ccccc12 [Example 20, N-(3-(2-(dimethylamino)ethyl)-1H-indol-5-yl)-4-methoxynaphthalene-1-sulfonamide] | 53.3 | 81.8 | 8.5 ± 1.7 |
